According to patent US6384056B1, “Heterocyclic thioesters or ketones for vision and memory disorders” (GPI NIL Holdings, Inc., priority 1998, dated 2002):
pKi: −log10 of the molar value.

Target: FKBP12 (Homo sapiens, UniProt P62942)
Experiment: Ki test procedure: inhibition of peptidyl-prolyl isomerase (rotamase) activity, chymotrypsin-coupled assay
Format: biochemical
Conditions: apparent Ki
From the text: The inhibition of the prolyl peptidyl cis-trans isomerase activity of FKBP may be measured as an indicator of this affinity.
Inhibition of the peptidyl-prolyl isomerase (rotamase) activity of the compounds used in the inventive methods and pharmaceutical compositions can be evaluated by known methods described in the literature (Harding et al., Nature, 1989, 341:758-760; Holt et al. J. Am. Chem. Soc., 115:9923-9938).
The cis-trans isomerization of an alanine-proline bond in a model substrate, N-succinyl-Ala-Ala-Pro-Phe-p-nitroanilide, is monitored spectrophotometrically in a chymotrypsin-coupled assay, which releases para-nitroanilide from the trans form of the substrate. The inhibition of this reaction caused by the addition of different concentrations of inhibitor is determined, and the data is analyzed as a change in first-order rate constant as a function of inhibitor concentration to yield the apparent Ki values.
In a plastic cuvette are added […] of ice cold assay buffer (25 mM HEPES, pH 7.8, 100 mM NaCl), […] of FKBP (2.5 mM in 10 mM Tris-Cl pH 7.5, 100 mM NaCl, 1 mM dithiothreitol), […] of chymotrypsin (50 mg/ml in 1 mM HCl) and […] of test compound at various concentrations in dimethyl sulfoxide. The reaction is initiated by the addition of 5 mL of substrate (succinyl-Ala-Phe-Pro-Phe-para-nitroanilide 5 mg/mL in 2.35 mM LiCl in trifluoroethanol).
The absorbance at 390 nm versus time is monitored for 90 seconds using a spectrophotometer and the rate constants are determined from the absorbance versus time data files.

Sequence of FKBP12 (P62942 whole entry, species assumed): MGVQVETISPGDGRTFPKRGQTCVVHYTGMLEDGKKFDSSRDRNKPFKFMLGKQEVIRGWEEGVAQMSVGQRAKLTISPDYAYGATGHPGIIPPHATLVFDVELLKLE

Row | Compound | pKi
1 | 1,5-Diphenyl-3-pentyl 1-(3,3-dimethyl-1,2-dioxopentyl)-2-piperidinecarbothioate [Compound 40] | 5.91
2 | 2-Phenyl-1-ethyl 1-(2-phenyl-1,2-dioxoethyl)-2-piperidinecarbothioate [Compound 14] | 6.50
3 | 2-Phenyl-1-ethyl 1-(3,3-dimethyl-1,2-dioxopentyl)-2-piperidinecarbothioate [Compound 10] | 7.92
4 | 2-Phenyl-1-ethyl (2S)-1-(1-cyclopentyl-1,2-dioxoethyl)-2-pyrrolidinecarbothioate [Compound 28] | 6.97
5 | 2-Phenyl-1-ethyl (2S)-1-(2-cyclohexyl-1,2-dioxoethyl)-2-pyrrolidinecarbothioate [Compound 12] | 6.35
6 | 3-(1-Naphthyl)-1-propyl 1-(3,3-dimethyl-2-oxopentanoyl)-2-piperidinecarbothioate [Compound 53] | 6.58
7 | 3-(1-Naphthyl)-1-propyl (2S)-1-(3,3-dimethyl-2-oxopentanoyl)-2-pyrrolidinecarbothioate [Compound 47] | 7.68
8 | 3-(2-Chlorophenyl)propyl (2S)-1-(3,3-dimethyl-2-oxopentanoyl)-2-pyrrolidinecarbothioate [Compound 61] | 6.86
9 | 3-(2-Fluorophenyl)propyl (2S)-1-(3,3-dimethyl-2-oxopentanoyl)-2-pyrrolidinecarbothioate [Compound 57] | 7.24
10 | 3-(3-Chlorophenyl)propyl (2S)-1-(3,3-dimethyl-2-oxopentanoyl)-2-pyrrolidinecarbothioate [Compound 54] | 7.43
11 | 3-(3-Fluorophenyl)propyl 1-(3,3-dimethyl-2-oxopentanoyl)-2-piperidinecarbothioate [Compound 64] | 6.79
12 | 3-(3-Fluorophenyl)propyl (2S)-1-(3,3-dimethyl-2-oxopentanoyl)-2-pyrrolidinecarbothioate [Compound 58] | 7.10
13 | 3-(3-Pyridyl)-1-propyl (2S)-1-(2-cyclohexyl-1,2-dioxoethyl)-2-pyrrolidinecarbothioate [Compound 35] | 7.21
14 | 3-(para-Methoxyphenyl)-1-propyl 1-(2-phenyl-1,2-dioxoethyl)piperidine-2-carbothioate [Compound 43] | 6.59
15 | 3-Phenyl-1-propyl 1-(3,3-dimethyl-1,2-dioxobutyl)-2-piperidinecarbothioate [Compound 29] | 7.23
16 | 3-Phenyl-1-propyl (2S)-1-(2-cyclohexyl-1,2-dioxoethyl)-2-pyrrolidinecarbothioate [Compound 32] | 6.44
17 | 3-Phenylpropyl 1-(3,3-dimethyl-2-oxopentanoyl)-2-piperidinecarbothioate [Compound 60] | 7.05
18 | 4,4-Di(para-fluorophenyl)butyl 1-(3,3-dimethyl-2-oxopentanoyl)-2-pyrrolidinecarbothioate [Compound 46] | 6.12
19 | 4-Phenyl-1-butyl 1-(1,2-dioxo-3,3-dimethylbutyl)-2-piperidinecarbothioate [Compound 39] | 6.46
20 | 4-Phenyl-1-butyl (2S)-1-(2-cyclohexyl-1,2-dioxoethyl)-2-pyrrolidinecarbothioate [Compound 33] | 5.77
21 | 4-Phenyl-1-butyl (2S)-1-(3,3-dimethyl-1,2-dioxopentyl)-2-pyrrolidinecarbothioate [Compound 34] | 7.47
22 | 4-Phenylbutyl 1-(3,3-dimethyl-2-oxopentanoyl)-2-piperidinecarbothioate [Compound 59] | 6.02
23 | CCC(C)(C)C(=O)C(=O)N1CCC[C@H]1C(=O)CCCCc1ccccc1 [Compound 1, (2S)-3,3-dimethyl-1-[2-(5-phenylpentanoyl)pyrrolidinyl]pentane-1,2-dione] | 7.51
24 | CC(C)(C)C(=O)C(=O)N1CCC[C@H]1C(=O)CCCCc1ccccc1 [Compound 3, (2S)-2-(1-oxo-5-phenyl)-pentyl-1-(3,3-dimethyl-1,2-dioxobutyl)pyrrolidine] | 7.07
25 | CCC(C)(C)C(=O)C(=O)N1CCCC1C(=O)SCc1csc2ccccc12 (stereo not shown) [Compound 11] | 6.52
26 | CCC(C)(C)C(=O)C(=O)N1CCCC[C@H]1C(=O)SCC(c1ccccc1)c1ccccc1 [Compound 49, 2,2-Diphenylethyl (2S)-1-(3,3-dimethyl-2-oxopentanoyl)-2-piperidinecarbothicate] | 5.87

System: retinal ganglion cell axons
Experiment: protection of retinal ganglion cell axons from degeneration 14 days after optic nerve transection (RT97)
Format: in vivo
Conditions: ± SEM
From the text: Efficacy of represetative compounds from different immunophilin ligand series in protecting retinal ganglion cell axons from degeneration following optic nerve transection set forth in Table 9.
Efficacy of representative compounds from different immunophilin ligand series in protecting retinal ganglion cell axons from degeneration following optic nerve transection

Row | Compound | RT 97 + RGC axon density 14 days after ON transaction (36 ON axons rescued)
27 | O=C(SCCCc1ccccc1)[C@@H]1CCCN1C(=O)NC12CC3CC(CC(C3)C1)C2 [B] | 100.0% ±5.2% SEM
28 | O=C(SCCCc1ccccc1)[C@@H]1CCCN1S(=O)(=O)Cc1ccccc1 [C] | 60.4% ±3.1% SEM
29 | O=C(OCCCc1ccccc1)[C@@H]1CCCCN1S(=O)(=O)Cc1ccccc1 [D] | 58.4% ±6.4% SEM
30 | CCC(C)(C)C(=O)C(=O)N1CCCC[C@H]1C(=O)OC(CCc1ccccc1)CCc1ccccc1 [E] | 56.6% ±9.4% SEM
31 | CCC(C)(C)C(=O)C(=O)N1CCS[C@H]1C(=O)OCCCc1cccnc1 [F] | 55.1% ±5.9% SEM
32 | CCC(C)(C)C(=O)C(=O)N1CCCC[C@H]1C(=O)O [G] | 34.0% ±4.8% SEM
33 | CCC(C)(C)C(=O)C(=O)N1CCCC[C@H]1C(N)=O [H] | 30.3% ±8.0% SEM
34 | O=C(OCCCc1cccnc1)[C@@H]1CCCN1C(=S)NC1CCCCC1 [I] | 23.8% ±5.3 SEM
35 | CCC(C)(C)C(=O)C(=O)N1CCC[C@H]1C(=O)CCCCc1cccnc1 [J] | 15.8% ±4.8% SEM
36 | CCC(C)(C)C(=O)C(=O)N1CCCC[C@H]1C(=O)SCCC(c1ccccc1)c1ccccc1 [K] | 13.0% ±4.2% SEM
37 | CCC(C)(C)C(=O)C(=O)N1CCC[C@H]1C(=O)O [L] | 7.8% ±3.0% SEM
38 | CCC(C)(C)C(=O)C(=O)N1CCC[C@H]1C(=O)SCCC(c1ccccc1)c1ccccc1 [M] | −6.3% +3.9% SEM

System: not listed separately
Experiment: Clearance
Format: in vitro ADME
Conditions: Table 9 comments

Row | Clearance [µL/min] | Compound
39 | 41.8 | CCC(C)(C)C(=O)C(=O)N1CCCC[C@H]1C(=O)OC(CCc1ccccc1)CCc1ccccc1 [E]
40 | 8.0 | O=C(OCCCc1cccnc1)[C@@H]1CCCN1C(=S)NC1CCCCC1 [I]
41 | 1.5 | CCC(C)(C)C(=O)C(=O)N1CCC[C@H]1C(=O)CCCCc1cccnc1 [J]
42 | 4.5 | CCC(C)(C)C(=O)C(=O)N1CCCC[C@H]1C(=O)SCCC(c1ccccc1)c1ccccc1 [K]
43 | 21.9 | CN(C)C(=O)N1CCC[C@H]1C(=O)SCCCc1ccccc1 [N]

Row | Compound | Clearance [µL/min]
44 | O=C(SCCCc1ccccc1)[C@@H]1CCCN1S(=O)(=O)Cc1ccccc1 [C] | 31.1
45 | CCC(C)(C)C(=O)C(=O)N1CCC[C@H]1C(=O)O [L] | 5.2
46 | CCC(C)(C)C(=O)C(=O)N1CCC[C@H]1C(=O)SCCC(c1ccccc1)c1ccccc1 [M] | 12.5
